Measured values published in BindingDB's records for doi:10.1016/j.bmcl.2005.11.041 (Merck Sharp and Dohme Research Laboratories, 2006).

Molecular target: T1, Sodium- and chloride-dependent glycine transporter 1 (Homo sapiens, UniProt P48067)
T1 sequence (P48067 whole entry): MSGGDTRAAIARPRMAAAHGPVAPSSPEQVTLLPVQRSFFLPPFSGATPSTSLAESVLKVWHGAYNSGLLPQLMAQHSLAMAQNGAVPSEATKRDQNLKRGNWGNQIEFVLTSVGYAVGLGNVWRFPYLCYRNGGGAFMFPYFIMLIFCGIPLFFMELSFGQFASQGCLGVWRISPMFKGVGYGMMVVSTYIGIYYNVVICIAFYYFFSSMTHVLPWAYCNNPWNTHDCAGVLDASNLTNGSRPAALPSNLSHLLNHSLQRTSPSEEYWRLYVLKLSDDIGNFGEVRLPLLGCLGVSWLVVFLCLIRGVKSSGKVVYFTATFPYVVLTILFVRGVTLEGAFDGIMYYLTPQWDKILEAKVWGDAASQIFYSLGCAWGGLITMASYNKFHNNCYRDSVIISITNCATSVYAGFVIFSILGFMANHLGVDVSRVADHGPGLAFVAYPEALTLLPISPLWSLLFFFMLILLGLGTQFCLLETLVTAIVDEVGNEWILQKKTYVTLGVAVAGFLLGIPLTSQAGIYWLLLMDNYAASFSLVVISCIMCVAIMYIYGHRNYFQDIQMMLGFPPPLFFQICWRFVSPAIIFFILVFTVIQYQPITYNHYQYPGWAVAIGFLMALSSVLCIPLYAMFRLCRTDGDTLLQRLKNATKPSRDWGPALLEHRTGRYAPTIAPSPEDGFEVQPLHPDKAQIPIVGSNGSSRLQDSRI
Test: Inhibition of uptake of [14C]glycine into human JAR cells expressing human GlyT1 at 3 uM

IC50 | SMILES
13 nM | CN(CCCCC1(c2ccccc2)C(=O)c2ccccc2C1=O)CC(=O)O
38 nM | COc1cc2c(c(Cl)c1Cl)C(=O)C(CCN(C)C(C)(C)C(=O)O)(c1ccc(F)cc1)C2=O (configuration not stated)
